The test in a line: Antioxidant activity assessed as […] radical scavenging activity. Type of test: functional. Further details: concentration or dose not given beside the values.
Take `O=c1c(O)c(-c2cccc(O)c2O)oc2ccc(O)cc12`: the Activity was found to be 86.6%.

As for `O=c1c(O)c(-c2ccccc2)oc2cc(O)cc(O)c12`, the Activity is 52.5%.

`O=c1c(O)c(-c2cc(O)c(O)c(O)c2)oc2cc(O)cc(O)c12`: the Activity was found to be 79.5%.

Turning to `O=c1cc(-c2cc(O)cc(O)c2)oc2ccccc12`, the Activity worked out at 61.8%.

For the compound `O=c1cc(-c2cccc(O)c2)oc2c(O)c(O)ccc12`, the Activity turned out to be 87.1%.

On to `O=c1c(O)c(-c2ccc(O)c(O)c2)oc2cc(O)ccc12`, for which the Activity was found to be 85.2%.

Regarding `O=c1cc(-c2ccc(O)c(O)c2)oc2cc(O)ccc12`, the Activity came out at 84.9%.

Consider `O=c1c(O)c(-c2cc(O)c(O)cc2O)oc2ccc(O)cc12`, for which the Activity came to 85.6%.

`O=c1c(O)c(-c2ccc(O)cc2O)oc2cc(O)cc(O)c12`: the Activity is 81.5%.

Consider `O=c1cc(-c2ccccc2O)oc2c(O)c(O)ccc12`, for which the Activity was determined as 79.9%.

Turning to `O=c1cc(-c2cccc(O)c2O)oc2ccc(O)cc12`, the Activity was 87.1%.

As to `O=c1c(O)c(-c2ccc(O)c(O)c2)oc2ccc(O)cc12`, the Activity was found to be 86.7%.

For `O=c1c(O)c(-c2ccccc2O)oc2ccc(O)cc12`, the Activity was 86.8%.

Regarding `O=c1c(O)c(-c2ccc(O)cc2O)oc2ccc(O)cc12`, the Activity stood at 86.3%.

For `O=c1cc(-c2ccc(O)cc2)oc2cc(O)c(O)c(O)c12`, the Activity stood at 69.9%.

Regarding `O=c1c(O)c(-c2ccc(O)cc2)oc2cc(O)cc(O)c12`, the Activity was 77.2%.

In the case of `O=c1cc(-c2ccc(O)c(O)c2)oc2c(O)c(O)ccc12`, the Activity was 87.4%.

For `O=c1cc(-c2ccc(O)c(O)c2)oc2ccc(O)cc12`, the Activity was 83.9%.

In the case of `O=c1cc(-c2cc(O)c(O)c(O)c2)oc2cc(O)cc(O)c12`, the Activity turned out to be 88.1%.

As for `O=c1cc(-c2ccc(O)c(O)c2)oc2cc(O)c(O)cc12`, the Activity is 86.4%.

`O=c1c(O)c(-c2ccccc2O)oc2c(O)c(O)ccc12`: the Activity was 83.1%.

Regarding `O=c1c(O)c(-c2cc(O)c(O)c(O)c2)oc2cc(O)ccc12`, the Activity turned out to be 79.9%.

`O=c1cc(-c2ccccc2)oc2c(O)c(O)cc(O)c12`: the Activity was 58.8%.

For `O=c1c(O)c(-c2ccc(O)c(O)c2)oc2c(O)c(O)cc(O)c12`, the Activity was 85.4%.

With `O=c1c(O)c(-c2ccccc2)oc2cccc(O)c12`, the Activity came out at 58.3%.

For the compound `O=c1c(O)c(-c2ccc(O)c(O)c2)oc2cc(O)cc(O)c12`, the Activity came out at 87.8%.

Regarding `O=c1c(O)c(-c2ccc(O)c(O)c2)oc2ccccc12`, the Activity amounted to 85.7%.

Take `O=c1c(O)c(-c2ccccc2O)oc2ccccc12`: the Activity was determined as 69.3%.

Consider `O=c1cc(-c2cc(O)c(O)c(O)c2)oc2cc(O)ccc12`, for which the Activity is 88.8%.

Regarding `O=c1c(O)c(-c2ccccc2O)oc2cc(O)cc(O)c12`, the Activity is 86.5%.
